The results in this text go back to patent US11304957B2, “Substituted quinazolines for inhibiting kinase activity” (NeuPharma, Inc., priority 2013, dated 2022).

Assay [1] relates to H1975 cells. The assay is described as follows: Inhibition of cancer cell growth, MTT assay, H1975. Particulars: read-out: IC50 H1975, 72 h, EGFR L858R/T790M. (Tetrazolium assays rely on reduction of a dye to a coloured formazan, in cell work by metabolically active cells.)
Experimental: Inhibition of cell growth by compounds was measured using MTT assay (Mosmann, T., Journal of Immunological Methods, 1983, 65, 55-63). Tumor cell lines were purchased from ATCC (American Type Culture Collection, Manassas, Va.). All cell lines were maintained in RPMI 1640 (Hyclone) supplemented with 10% fetal bovine serum (FBS, Hyclone), glutamine (2 mM, Hyclone), and antibiotics (penicillin 100 U/mL and streptomycin 50 μg/mL) at 37° C. in a humidified atmosphere of 5% CO2 in air. Taxol (as a positive control, Sigma) and compounds were dissolved in DMSO (Sigma), and the final concentration of DMSO in the medium was 1%. Tumor cells were plated in 96-well plates at densities of about 4000 cells/well of a 96-well plate and allowed to adhere/grow for 24 h. They were then treated with various concentrations of drug for 72 h. […] The number of cells remaining after 72 h was compared to the number of viable cells at the time of compound addition by measuring the absorbance at 570 nm, allowing for the calculation of growth inhibition.
All concentrations of compounds were tested in triplicate and controls were averaged over 4 wells. IC50 was calculated by plotting the concentration of compound vs the percentage of inhibition in treated wells using GraphPad Prism 5. […]
For assay [2], the target named is EGFR (ErbB1) T790M L858R (Homo sapiens (Human), UniProt P00533, L858R/T790M). The assay is described as follows: Z'-LYTE kinase inhibition assay, EGFR L858R/T790M. Particulars: compound at 0.0137 μM. The class given is biochemical. As to the method: Inhibitory activities of compounds against BTK, EGFR and EGFR mutants (EGFR L858R, EGFR T790M, EGFR L858R/T790M), FGFR1, FGFR2, JAK2, JAK3 and KDR were measured by Invitrogen using Z'-LYTE® Method as briefly described in the following. Test Compounds are screened in 1% DMSO (final) in the well. For 10 point titrations, 3-fold serial dilutions are conducted from the starting concentration. All ATP Solutions are diluted to a 4× working concentration in Kinase Buffer (50 mM HEPES pH 7.5, 0.01% BRIJ-35, 10 mM MgCl2, 1 mM EGTA). Peptide/Kinase Mixtures are diluted to a 2× working concentration in the appropriate Kinase Buffers as described below. (iv) Peptide/Kinase Mixtures for Measurement of EGFR (ErbB1) T790M L858R: The 2×EGFR (ErbB1) […] mixture is prepared in 50 mM HEPES pH 6.5, 0.01% BRIJ-35, 10 mM MgCl2, 1 mM EGTA, 0.02% NaN3. […] After the 1 hour Kinase Reaction incubation, 5 μL of a 1:64 dilution of Development Reagent B is added. Reaction starts by 30-second shaking of mixture consisting of 2.5 μL 4× test compound, 5 μL 2× kinase reaction mixture and 2.5 μL 4×ATP Solution on Bar-coded Corning, low volume NBS, black 384-well plate (Corning Cat. #3676). Then the mixture is incubated for 60-minute at room temperature for the kinase reaction, followed by addition of 5 μL of a 1:1024 dilution of development reagent A and 30-second plate shake. The mixture is then incubated for another 60-minute at room temperature for development reaction. Finally fluorescence is read by plate reader. To determine IC50 of a compound against EGFR, EGFR mutant and other kinases, a series of concentrations of the compound were tested for the inhibition.
Sequence of EGFR (ErbB1) T790M L858R (P00533 25-1210 T790M/L858R): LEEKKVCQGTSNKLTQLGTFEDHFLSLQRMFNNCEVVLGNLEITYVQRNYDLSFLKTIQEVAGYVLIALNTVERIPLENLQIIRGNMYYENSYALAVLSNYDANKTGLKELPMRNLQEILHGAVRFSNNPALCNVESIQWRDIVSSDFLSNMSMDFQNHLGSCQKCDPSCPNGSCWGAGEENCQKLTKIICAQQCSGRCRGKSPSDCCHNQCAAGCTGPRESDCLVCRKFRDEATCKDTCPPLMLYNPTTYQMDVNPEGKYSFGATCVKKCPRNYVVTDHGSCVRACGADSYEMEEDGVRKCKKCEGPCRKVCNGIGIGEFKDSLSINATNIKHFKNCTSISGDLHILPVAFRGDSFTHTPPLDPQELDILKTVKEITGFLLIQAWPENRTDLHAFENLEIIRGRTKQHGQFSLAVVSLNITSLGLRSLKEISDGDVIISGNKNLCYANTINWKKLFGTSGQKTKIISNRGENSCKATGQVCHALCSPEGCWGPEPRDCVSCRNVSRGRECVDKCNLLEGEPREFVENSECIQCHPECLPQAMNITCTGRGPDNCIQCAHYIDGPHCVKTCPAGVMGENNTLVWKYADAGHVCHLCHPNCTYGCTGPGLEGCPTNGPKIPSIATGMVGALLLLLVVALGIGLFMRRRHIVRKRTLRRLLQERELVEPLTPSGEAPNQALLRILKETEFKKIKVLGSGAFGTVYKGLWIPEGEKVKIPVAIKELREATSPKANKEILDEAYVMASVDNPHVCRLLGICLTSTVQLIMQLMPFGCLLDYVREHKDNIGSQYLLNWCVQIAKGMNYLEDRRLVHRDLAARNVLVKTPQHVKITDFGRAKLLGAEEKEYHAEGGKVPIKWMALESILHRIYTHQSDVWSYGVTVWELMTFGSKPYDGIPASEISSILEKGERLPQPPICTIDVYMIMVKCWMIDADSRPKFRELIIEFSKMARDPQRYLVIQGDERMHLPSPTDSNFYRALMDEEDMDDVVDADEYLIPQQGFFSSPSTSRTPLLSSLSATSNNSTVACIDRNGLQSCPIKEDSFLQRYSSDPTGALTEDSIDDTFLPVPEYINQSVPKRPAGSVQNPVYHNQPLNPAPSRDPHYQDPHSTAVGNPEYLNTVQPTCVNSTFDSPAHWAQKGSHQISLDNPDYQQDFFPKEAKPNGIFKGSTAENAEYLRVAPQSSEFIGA

Assay [3] addresses EGFR (ErbB1) (Homo sapiens (Human), UniProt P00533). The experiment in a line: Z'-LYTE kinase inhibition assay, EGFR (ErbB1). The class given is biochemical. As to the method:
Inhibitory activities of compounds against BTK, EGFR and EGFR mutants (EGFR L858R, EGFR T790M, EGFR L858R/T790M), FGFR1, FGFR2, JAK2, JAK3 and KDR were measured by Invitrogen using Z'-LYTE® Method as briefly described in the following. Test Compounds are screened in 1% DMSO (final) in the well. For 10 point titrations, 3-fold serial dilutions are conducted from the starting concentration. All ATP Solutions are diluted to a 4× working concentration in Kinase Buffer (50 mM HEPES pH 7.5, 0.01% BRIJ-35, 10 mM MgCl2, 1 mM EGTA). Peptide/Kinase Mixtures are diluted to a 2× working concentration in the appropriate Kinase Buffers as described below. (i) Peptide/Kinase Mixtures for Measurement of EGFR (ErbB1): The 2×EGFR (ErbB1)/[…] mixture is prepared in 50 mM HEPES pH 7.5, 0.01% BRIJ-35, 10 mM MgCl2, 4 mM MnCl2, 1 mM EGTA, 2 mM DTT. The final 10 μL Kinase Reaction consists of 1.1-5.25 ng EGFR (ErbB1) and 2 μM […] in 50 mM HEPES pH 7.5, 0.01% BRIJ-35, 10 mM MgCl2, 2 mM MnCl2, 1 mM EGTA, 1 mM DTT. After the 1 hour Kinase Reaction incubation, 5 μL of a 1:64 dilution of Development Reagent B is added. Reaction starts by 30-second shaking of mixture consisting of 2.5 μL 4× test compound, 5 μL 2× kinase reaction mixture and 2.5 μL 4×ATP Solution on Bar-coded Corning, low volume NBS, black 384-well plate (Corning Cat. #3676). […] Finally fluorescence is read by plate reader. […]

Sequence of EGFR (ErbB1) (P00533 25-1210): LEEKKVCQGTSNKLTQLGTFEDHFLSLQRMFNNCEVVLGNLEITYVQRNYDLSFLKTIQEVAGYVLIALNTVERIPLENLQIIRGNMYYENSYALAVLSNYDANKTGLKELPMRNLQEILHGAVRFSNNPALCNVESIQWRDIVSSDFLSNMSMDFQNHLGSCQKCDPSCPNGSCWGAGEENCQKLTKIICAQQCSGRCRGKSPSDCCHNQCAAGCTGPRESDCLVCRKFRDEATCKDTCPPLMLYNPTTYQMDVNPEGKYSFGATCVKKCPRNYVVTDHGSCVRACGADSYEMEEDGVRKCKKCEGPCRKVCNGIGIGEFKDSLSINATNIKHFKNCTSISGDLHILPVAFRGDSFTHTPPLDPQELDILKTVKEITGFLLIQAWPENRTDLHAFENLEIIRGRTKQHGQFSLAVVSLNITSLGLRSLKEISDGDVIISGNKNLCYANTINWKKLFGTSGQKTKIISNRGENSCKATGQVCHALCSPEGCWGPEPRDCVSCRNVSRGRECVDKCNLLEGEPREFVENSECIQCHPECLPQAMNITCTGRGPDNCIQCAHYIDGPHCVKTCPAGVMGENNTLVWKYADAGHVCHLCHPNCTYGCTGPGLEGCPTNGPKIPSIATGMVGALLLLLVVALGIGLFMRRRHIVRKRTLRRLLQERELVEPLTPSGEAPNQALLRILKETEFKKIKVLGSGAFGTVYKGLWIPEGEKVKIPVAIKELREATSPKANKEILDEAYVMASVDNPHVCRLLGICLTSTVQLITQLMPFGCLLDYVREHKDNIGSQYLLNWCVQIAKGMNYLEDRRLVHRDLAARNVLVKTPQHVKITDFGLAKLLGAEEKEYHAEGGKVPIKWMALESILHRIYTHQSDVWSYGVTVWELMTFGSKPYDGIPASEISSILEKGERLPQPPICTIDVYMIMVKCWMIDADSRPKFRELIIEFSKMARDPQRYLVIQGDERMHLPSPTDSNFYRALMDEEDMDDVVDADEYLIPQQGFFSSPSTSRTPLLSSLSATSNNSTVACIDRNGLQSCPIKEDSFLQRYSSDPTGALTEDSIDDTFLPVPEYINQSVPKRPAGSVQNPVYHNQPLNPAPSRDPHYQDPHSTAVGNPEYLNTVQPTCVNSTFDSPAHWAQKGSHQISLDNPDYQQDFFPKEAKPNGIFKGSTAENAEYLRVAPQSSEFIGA

As for `C=CC(=O)Nc1cccc(-c2cccc3cnc(Nc4ccc(N5CCN(CC(N)=O)CC5)cc4F)nc23)c1` [Example C154], in assay [1], the IC50 lay within 0.1 to 0.5 µM. Moreover, in assay [2], the “% inhibition EGFR L858R/T790M (Compound at 0.0137 μM)” value is “+ (less than 50% inhibition)”. For the same compound, the “% inhibition EGFR (Compound at 0.041 μM)” value in assay [3] was “+ (less than 50% inhibition)”.
As to `C=CC(=O)Nc1cccc(-c2cccc3cnc(Nc4ccc(N5CCN(CC(N)=O)CC5)c(F)c4)nc23)c1` [Example C164], the IC50 in assay [1] fell in the range of 0.1 to 0.5 µM. The “% inhibition EGFR L858R/T790M (Compound at 0.0137 μM)” value in assay [2] is listed as “+ (less than 50% inhibition)”. In addition, the “% inhibition EGFR (Compound at 0.041 μM)” value in assay [3] is reported as “+ (less than 50% inhibition)”.
